In assay [1] the test system is Enterococcus faecalis. In words: Antibacterial activity against Enterococcus faecalis. Type of assay: functional. Particulars: GC 4555.
For assay [2], the system named is Staphylococcus aureus. In words: Antibacterial activity against methicillin resistant Staphylococcus aureus. Type of assay: functional. Conditions: GC 1131.
The test system of assay [3] is Enterococcus faecalis. Put plainly: Antibacterial activity against vancomycin resistant Enterococcus faecalis. It is filed as functional. Conditions: GC 2242.
In assay [4] the target is T1, UDP-N-acetylenolpyruvoylglucosamine reductase (Escherichia coli K-12, UniProt P08373).
T1 sequence (P08373 whole entry): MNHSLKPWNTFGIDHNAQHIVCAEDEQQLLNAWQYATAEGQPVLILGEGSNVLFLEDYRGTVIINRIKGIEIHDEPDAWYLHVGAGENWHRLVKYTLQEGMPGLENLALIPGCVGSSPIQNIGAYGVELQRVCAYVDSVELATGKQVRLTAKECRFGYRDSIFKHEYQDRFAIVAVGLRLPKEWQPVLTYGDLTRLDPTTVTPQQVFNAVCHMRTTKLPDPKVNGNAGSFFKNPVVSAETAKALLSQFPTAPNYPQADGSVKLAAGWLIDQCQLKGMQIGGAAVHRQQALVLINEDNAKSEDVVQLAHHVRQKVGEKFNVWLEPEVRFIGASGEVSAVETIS
In words: Inhibitory activity against MurB in Escherichia coli.

Assay [5] has as its system Staphylococcus aureus. In words: Antibacterial activity against Staphylococcus aureus. Conditions: GC 4543. It is filed as functional.
For another assay, the system named is Streptococcus pneumoniae. Put plainly: Antibacterial activity against penicillin resistant Streptococcus pneumoniae. It is filed as functional. Conditions: GC 1894.
The target of assay [6] is T2, UDP-N-acetylmuramoylalanine--D-glutamate ligase (Escherichia coli K-12, UniProt P14900).
T2 sequence (P14900 whole entry): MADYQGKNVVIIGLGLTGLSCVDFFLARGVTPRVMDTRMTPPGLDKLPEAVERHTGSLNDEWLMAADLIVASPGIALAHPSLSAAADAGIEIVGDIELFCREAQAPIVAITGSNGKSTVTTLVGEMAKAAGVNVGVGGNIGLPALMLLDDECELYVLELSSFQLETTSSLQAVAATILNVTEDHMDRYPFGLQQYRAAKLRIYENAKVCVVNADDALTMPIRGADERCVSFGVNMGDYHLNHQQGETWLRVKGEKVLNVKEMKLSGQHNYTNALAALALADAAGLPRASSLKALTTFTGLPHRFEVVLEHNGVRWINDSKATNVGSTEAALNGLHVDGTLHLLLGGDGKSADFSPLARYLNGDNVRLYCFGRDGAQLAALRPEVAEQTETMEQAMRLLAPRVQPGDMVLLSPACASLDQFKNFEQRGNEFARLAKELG
Put plainly: Inhibitory activity against MurD in Escherichia coli.

The target in assay [7] is UDP-N-acetylglucosamine 1-carboxyvinyltransferase (Escherichia coli K-12, UniProt P0A749). Put plainly: Inhibitory activity against MurA in Escherichia coli.
Chain of UDP-N-acetylglucosamine 1-carboxyvinyltransferase (P0A749 whole entry): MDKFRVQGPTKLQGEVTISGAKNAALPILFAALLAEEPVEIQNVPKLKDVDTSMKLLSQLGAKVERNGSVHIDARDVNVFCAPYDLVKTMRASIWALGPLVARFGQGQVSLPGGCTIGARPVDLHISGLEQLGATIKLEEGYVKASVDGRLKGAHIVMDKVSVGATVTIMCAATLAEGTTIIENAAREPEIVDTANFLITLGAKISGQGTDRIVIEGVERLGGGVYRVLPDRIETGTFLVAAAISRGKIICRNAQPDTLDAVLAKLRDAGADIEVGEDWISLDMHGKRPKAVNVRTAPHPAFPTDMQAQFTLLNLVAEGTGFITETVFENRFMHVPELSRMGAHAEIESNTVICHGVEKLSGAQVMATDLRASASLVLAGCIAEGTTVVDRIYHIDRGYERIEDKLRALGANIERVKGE
Assay [8] concerns the target UDP-N-acetylmuramate--L-alanine ligase (Escherichia coli K-12, UniProt P17952). In words: Inhibitory activity against MurC in Escherichia coli.

By MIC is commonly meant the lowest concentration that inhibits growth of the organism. A low value points to greater potency. A word on the IC50: it is the concentration needed to halve the response being measured.

In brackets after ≈: the same amount, converted by molar mass. Some results are limits rather than exact numbers.

Chain of UDP-N-acetylmuramate--L-alanine ligase (P17952 whole entry): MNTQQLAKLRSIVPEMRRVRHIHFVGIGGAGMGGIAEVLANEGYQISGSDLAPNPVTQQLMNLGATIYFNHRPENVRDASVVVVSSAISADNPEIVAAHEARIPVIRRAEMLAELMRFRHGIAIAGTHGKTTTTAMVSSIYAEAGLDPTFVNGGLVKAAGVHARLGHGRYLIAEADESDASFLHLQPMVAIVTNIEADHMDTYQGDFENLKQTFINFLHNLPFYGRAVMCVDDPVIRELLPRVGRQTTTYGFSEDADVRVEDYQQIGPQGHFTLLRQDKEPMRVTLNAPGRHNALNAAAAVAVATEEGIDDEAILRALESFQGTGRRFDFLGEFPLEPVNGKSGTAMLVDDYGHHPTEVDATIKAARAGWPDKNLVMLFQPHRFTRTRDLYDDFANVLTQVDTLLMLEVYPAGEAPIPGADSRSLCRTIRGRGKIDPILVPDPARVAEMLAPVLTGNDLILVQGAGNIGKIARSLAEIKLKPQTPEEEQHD

Regarding `O=C1O/C(=C\c2ccc(-c3ccccc3)cc2)C(O)=C1c1cccc2ccccc12`, the MIC against Enterococcus faecalis [1] was 32 µg/mL (≈ 82 µM); with Staphylococcus aureus [2], 8 µg/mL (≈ 20.5 µM); in the assay on Enterococcus faecalis [3] it was 8 µg/mL (≈ 20.5 µM); in the assay with Staphylococcus aureus [5], 4 µg/mL (≈ 10.2 µM); in the assay on Streptococcus pneumoniae, 4 µg/mL (≈ 10.2 µM). In addition, the IC50 in assay [4] and in assay [6] was more than 64 µM each time.

In the case of `O=C1O/C(=C\c2cccc3ccccc23)C(O)=C1c1ccc(Cl)cc1`, the MIC was 16 µg/mL (≈ 45.9 µM) in the assay with Enterococcus faecalis [1]; 8 µg/mL (≈ 22.9 µM) against Staphylococcus aureus [2]; 8 µg/mL (≈ 22.9 µM) against Enterococcus faecalis [3]; 8 µg/mL (≈ 22.9 µM) in the assay on Staphylococcus aureus [5]; 0.5 µg/mL (≈ 1.43 µM) in the assay on Streptococcus pneumoniae. The IC50 in assay [7] and in assay [6] was more than 71.7 µM each time.

As to `O=C1O/C(=C\c2ccc(-c3cc(Cl)cc(Cl)c3)cc2)C(O)=C1c1cc(Cl)cc(Cl)c1`, the MIC with Enterococcus faecalis [1] was 1 µg/mL (≈ 2.09 µM); with Staphylococcus aureus [2], 4 µg/mL (≈ 8.37 µM); with Enterococcus faecalis [3] it was 0.5 µg/mL (≈ 1.05 µM); in the assay with Staphylococcus aureus [5], 0.5 µg/mL (≈ 1.05 µM); in the assay with Streptococcus pneumoniae, not above 0.12 µg/mL.

Take `COc1ccc(C2=C(O)O/C(=C\c3cccc4ccccc34)C2=O)cc1`: the MIC is more than 128 µg/mL against Enterococcus faecalis [1]; 32 µg/mL (≈ 92.9 µM) with Staphylococcus aureus [2]; 32 µg/mL (≈ 92.9 µM) in the assay with Enterococcus faecalis [3]; 64 µg/mL (≈ 186 µM) against Staphylococcus aureus [5]; 8 µg/mL (≈ 23.2 µM) against Streptococcus pneumoniae. Also, the IC50 in [8] was 46.5 µM; in assay [7], more than 72.6 µM; in assay [4] it was more than 72.6 µM; in [6] it was more than 72.6 µM.

On to `O=C1O/C(=C\C2CCCCC2)C(O)=C1c1cccc(C(F)(F)F)c1`, for which the MIC in the assay on Enterococcus faecalis [1] is 64 µg/mL (≈ 189 µM); in the assay on Staphylococcus aureus [2], 32 µg/mL (≈ 94.6 µM); against Enterococcus faecalis [3], 32 µg/mL (≈ 94.6 µM); with Staphylococcus aureus [5], more than 128 µg/mL; in the assay with Streptococcus pneumoniae it was not above 0.12 µg/mL. In addition, the IC50 in [7], in [4] and in assay [6] was more than 73.9 µM in each case.

As for `O=C1O/C(=C\c2cccc(C(F)(F)F)c2)C(O)=C1c1ccc(-c2ccccc2)c(F)c1`, the MIC in the assay with Enterococcus faecalis [1] was determined as 1 µg/mL (≈ 2.35 µM); in the assay with Staphylococcus aureus [2] it was 2 µg/mL (≈ 4.69 µM); in the assay on Enterococcus faecalis [3], 0.25 µg/mL (≈ 0.586 µM); against Staphylococcus aureus [5], 2 µg/mL (≈ 4.69 µM); in the assay on Streptococcus pneumoniae, 0.25 µg/mL (≈ 0.586 µM). Also, the IC50 in assay [8] is 18.8 µM; in [7], 23.5 µM; in [6], more than 58.6 µM.

On to `O=C1O/C(=C\c2cccc(C(F)(F)F)c2)C(O)=C1c1ccc2ccccc2c1`, for which the MIC in the assay on Enterococcus faecalis [1] amounted to 32 µg/mL (≈ 83.7 µM); with Staphylococcus aureus [2] it was 8 µg/mL (≈ 20.9 µM); in the assay on Enterococcus faecalis [3], 8 µg/mL (≈ 20.9 µM); in the assay on Staphylococcus aureus [5], 8 µg/mL (≈ 20.9 µM); against Streptococcus pneumoniae, 8 µg/mL (≈ 20.9 µM). In assay [6], this molecule came in with an IC50 of more than 65.4 µM.

Regarding `O=C1O/C(=C\c2cccc(C(F)(F)F)c2Cl)C(O)=C1c1ccc(-c2ccccc2)c(F)c1`, the MIC against Enterococcus faecalis [1] amounted to 2 µg/mL (≈ 4.34 µM); with Staphylococcus aureus [2] it was 1 µg/mL (≈ 2.17 µM); with Enterococcus faecalis [3], 0.5 µg/mL (≈ 1.09 µM); against Staphylococcus aureus [5] it was 1 µg/mL (≈ 2.17 µM); against Streptococcus pneumoniae it was 0.25 µg/mL (≈ 0.543 µM).

Turning to `O=C1O/C(=C\c2cccc(C(F)(F)F)c2)C(O)=C1c1ccc(Cl)cc1`, the MIC with Enterococcus faecalis [1] amounted to 16 µg/mL (≈ 43.6 µM); against Staphylococcus aureus [2], 16 µg/mL (≈ 43.6 µM); against Enterococcus faecalis [3], 8 µg/mL (≈ 21.8 µM); in the assay on Staphylococcus aureus [5], 8 µg/mL (≈ 21.8 µM); in the assay with Streptococcus pneumoniae it was 1 µg/mL (≈ 2.73 µM). Moreover, the IC50 is 16.4 µM in assay [8], 38.2 µM in [7], 24.5 µM in [4] and more than 68.2 µM in assay [6].

Regarding `O=C1O/C(=C\c2cccc(C(F)(F)F)c2)C(O)=C1c1ccc(-c2ccccc2)cc1`, the MIC with Enterococcus faecalis [1] was found to be 8 µg/mL (≈ 19.6 µM); in the assay with Staphylococcus aureus [2], 4 µg/mL (≈ 9.79 µM); in the assay with Enterococcus faecalis [3], 4 µg/mL (≈ 9.79 µM); in the assay with Staphylococcus aureus [5], 4 µg/mL (≈ 9.79 µM); with Streptococcus pneumoniae, 0.5 µg/mL (≈ 1.22 µM). Also, the figures for the IC50 in assay [4] and in [6] were 12.2 µM and more than 61.2 µM, respectively.

Regarding `O=C1O/C(=C\c2cc(C(F)(F)F)ccc2Cl)C(O)=C1c1ccc(-c2ccccc2)c(F)c1`, the MIC against Enterococcus faecalis [1] worked out at 4 µg/mL (≈ 8.68 µM); with Staphylococcus aureus [2], 1 µg/mL (≈ 2.17 µM); against Enterococcus faecalis [3], 1 µg/mL (≈ 2.17 µM); in the assay with Staphylococcus aureus [5], 1 µg/mL (≈ 2.17 µM); in the assay with Streptococcus pneumoniae, 0.25 µg/mL (≈ 0.543 µM).

As to `O=C1O/C(=C\c2ccc(-c3ccccc3)cc2)C(O)=C1c1ccc2ccccc2c1`, the MIC against Enterococcus faecalis [1] was determined as 8 µg/mL (≈ 20.5 µM); in the assay on Staphylococcus aureus [2], 16 µg/mL (≈ 41 µM); against Enterococcus faecalis [3], 4 µg/mL (≈ 10.2 µM); with Staphylococcus aureus [5] it was 4 µg/mL (≈ 10.2 µM); in the assay on Streptococcus pneumoniae, 2 µg/mL (≈ 5.12 µM). Further, the IC50 in [7] and in assay [6] was more than 64 µM throughout.

The values above are taken from ChEMBL document CHEMBL1148552, “Pulvinones as bacterial cell wall biosynthesis inhibitors” (Bioorg Med Chem Lett, 2006).
